Laboratory results taken from US4875922A, “Pyrimidine derivatives” (Imperial Chemical Industries PLC, priority 1986, dated 1989).

Key:
[1] = system: Phytophthora infestans; type: in vivo; conditions: 100 ppm spray plus root drench (approximately 40 ppm a.i/dry soil), one or two days before inoculation
[2] = system: Rice; assay: Whole plant screen for plant growth regulator activity, rice (RC); type: in vivo, Rice (Ishikari); conditions: 4000 ppm (4 kg/ha), visual score after 2-6 weeks; for T = Tillering or side shooting: * = decrease in tillering
Outline: (§1)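 Visual assessment of morphological characteristics, 2-6 weeks after treatment, relative to formulation-blank controls. Plants had received a 4000 ppm tracksprayer application (4 kg/ha at 1000 l/ha) and were grown under supplementary lighting giving 16 h days, with the temperate cereals wheat and barley cooler (16/13° C.) than maize and rice (25/22° C.).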

[3] = system: Pyricularia oryzae; type: in vivo; conditions: 100 ppm spray plus root drench (approximately 40 ppm a.i/dry soil), one or two days before inoculation
[4] = system: Barley; assay: Whole plant screen for plant growth regulator activity, barley (BR); type: in vivo, Barley (Atem); conditions: for G = Greening effect / I = Interligular or internodal length reduction / R = Retardation / T = Tillering or side shooting: BR, 4000 ppm (4 kg/ha), visual score after 2-6 weeks; for T = Tillering or side shooting: * = decrease in tillering
Outline: as §1

[5] = system: Apple; assay: Whole plant screen for plant growth regulator activity, apple (AP); type: in vivo, Apple (Red Delicious); conditions: 4000 ppm (4 kg/ha), visual score after 2-6 weeks
Outline: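 Visual scoring of morphological effects after 2-6 weeks in glasshouse, compared with formulation-blank controls. Spray application was 4000 ppm, equal to 4 kg/ha at 1000 l/ha field volume, at set leaf stages. Growth at 25° C./22° C. day/night with 16 hour photoperiod; temperate cereals wheat and barley at 16° C./13° C.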

[6] = system: Spring Barley; assay: Intermediate Retardant Test, spring barley; type: in vivo, Spring Barley (Atem/kym); conditions: Hordeum vulgare, 672 h, overall spray, approximately 28 days, Table VII, read-out: Percentage Reduction in Height of Spring Barley (Compared to formulation blank)
Outline: (§2)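 Overall spray at 500 and 2000 ppm (0.5 and 2 kg/ha^-1 at 1000 l/ha^-1); for apples, a 2000 ppm foliar-only spray was also compared with a 2000 ppm root drench. Rice grew in flooded 4" paddy pots, barley and apples in 4" pots. About 28 days after treatment, height (to top-most ligule, or to apex for apples) was recorded as % reduction versus formulation blank.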

[7] = system: Erysiphe graminis; assay: Foliar fungal disease control, Erysiphe graminis (barley); type: in vivo; conditions: 100 ppm spray plus root drench (approximately 40 ppm a.i/dry soil); inoculated 24 hours before treatment
[8] = system: Wheat; assay: Whole plant screen for plant growth regulator activity, wheat (WW); type: in vivo, Wheat (Timmo); conditions: WW, 4000 ppm (4 kg/ha), visual score after 2-6 weeks; for T = Tillering or side shooting: * = decrease in tillering
Outline: as §1

[9] = system: Plasmopara viticola; assay: Foliar fungal disease control, Plasmopara viticola (vine); type: in vivo; conditions: 100 ppm spray plus root drench (approximately 40 ppm a.i/dry soil), one or two days before inoculation
[10] = system: Apples; assay: Intermediate Retardant Test, apples, foliar spray compared with root drench; type: in vivo, Apples (Red Delicious); conditions: 672 h, approximately 28 days, Table IX, read-out: Percentage Reduction in Height of Apples (Compared to formulation blank); for percent reduction in plant height at 2000 ppm: 2000 ppm (Foliar); for percent reduction in plant height at 2000 µg/mL: soil, 2000 pmm (Root), root drench
Outline: as §2

[11] = system: Puccinia recondita; assay: Foliar fungal disease control, Puccinia recondita (wheat); type: in vivo; conditions: 100 ppm spray plus root drench (approximately 40 ppm a.i/dry soil), one or two days before inoculation
[12] = system: Cercospora arachidicola; assay: Foliar fungal disease control, Cercospora arachidicola (peanut); type: in vivo; conditions: 100 ppm spray plus root drench (approximately 40 ppm a.i/dry soil), one or two days before inoculation
[13] = system: Tomato; assay: Whole plant screen for plant growth regulator activity, tomato (TO); type: in vivo, Tomato (Ailsa Craig); conditions: 4000 ppm (4 kg/ha), visual score after 2-6 weeks
Outline: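 Tomato (Ailsa Craig), one plant per 3-inch peat pot, sprayed at 2–2½ leaves with 4000 ppm (4 kg/ha in 1000 l/ha) by track sprayer. Glasshouse 25 °C day/22 °C night, 16 h photoperiod; morphology visually scored after 2–6 weeks against formulation blanks.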

[14] = system: Rice; assay: Intermediate Retardant Test, rice; type: in vivo, Rice (Ishikari); conditions: Oryza sativa, 672 h, overall spray, approximately 28 days, Table VI, read-out: Percentage Reduction in Height of Rice (Compared to formulation blank)
Outline: as §2

[15] = system: Venturia inaequalis; assay: Foliar fungal disease control, Venturia inaequalis (apple); type: in vivo; conditions: 100 ppm spray plus root drench (approximately 40 ppm a.i/dry soil), one or two days before inoculation
[16] = system: Maize; assay: Whole plant screen for plant growth regulator activity, maize (MZ); type: in vivo, Maize (Earliking); conditions: 4000 ppm (4 kg/ha), visual score after 2-6 weeks
Outline: as §1

[17] = system: Apples; assay: Intermediate Retardant Test, apples, overall spray; type: in vivo, Apples (Red Delicious); conditions: approximately 28 days, Table VIII
Source text: Three species are involved in this test RICE, SPRING-BARLEY and APPLES. The variety and growth stages at spray are outlined in Table V. Compounds were applied at 500 ppm and 2000 ppm respectively (0.5 kg and 2 kg/ha^-1 at a field volume of 1000 l/ha^-1) as an overall spray except in the case of certain tests on APPLES. This gives a foliar and root component in the test, i.e., this test will detect the activity of both root and foliar acting compounds. The intermediate retardant test on APPLES of which the results are given in Table IX was different, in that a foliar (only) spray at 2000 ppm was compared with a root drench, also at 2000 ppm. The rice was grown in 4" `paddy` pots, i.e., the roots and bottom of the stems are immersed in water under conditions corresponding to those in paddy fields. Spring barley and apples were grown in 4" pots. The plants were assessed for height to top-most ligule at approximately 28 days after treatment for spring barley and rice and for height to apex at approximately 28 days after the treatment for apples. In each case the result for the 500 ppm and 2000 ppm test for each compound is compared to the height of the formulation blank in that test, presented as a percentage reduction in height compared to the formulation blank.

| SMILES | disease control, PH[…] (TOMATO) [1] | G = Greening effect [2] | I = Interligular or internodal length reduction [2] | R = Retardation [2] | disease control, P[…] (RICE) [3] | G = Greening effect [4] | I = Interligular or internodal length reduction [4] | R = Retardation [4] | I = Interligular or internodal length reduction [5] | R = Retardation [5] | percent reduction in plant height at 500 ppm [6] [%] | percent reduction in plant height at 2000 ppm [6] [%] | disease control, ERYSIPHE GRAMINIS (BARLEY) [7] | R = Retardation [8] | T = Tillering or side shooting [8] | disease control, PLASMOPARA VITICOLA (VINE) [9] | disease control, PUCCINIA RECONDITA (WHEAT) [11] | disease control, CERCOSPORA ARACHIDICOLA (PEANUT) [12] | Percent reduction in rice height vs formulation blank at 500 ppm [14] [%] | Percent reduction in rice height vs formulation blank at 2000 ppm [14] [%] | also measured |
| --- | --- | --- | --- | --- | --- | --- | --- | --- | --- | --- | --- | --- | --- | --- | --- | --- | --- | --- | --- | --- | --- |
| CC(C)(C)C(O)(C#CCCCCl)c1cncnc1 (stereo not shown) [Compound 19, 2,2-Dimethyl-1-(5-chloropent-1-yne)-1-(pyrimidin-5-yl)-propan-1-ol] | 0 (60-100% of disease on untreated plants) | 2 (31-60%) | 3 (61-100%) | 2 (31-60%) | 0 (60-100% of disease on untreated plants) | 1 (10-30%) | 3 (61-100%) | 3 (61-100%) | 3 (61-100%) | 3 (61-100%) | 31 | 57 | 4 | 3 (61-100%) | 3 (61-100%) | 0 (60-100% of disease on untreated plants) | 4 | 4 | 11 | 39 | A = Apical damage ([4]; 4000 ppm): 3 (61-100%); T = Tillering or side shooting [4]: 3 (61-100%); G = Greening effect [5]: 1 (10-30%); I = Interligular or internodal length reduction [8]: 3 (61-100%); percent reduction in plant height at 2000 ppm [10]: 54%; percent reduction in plant height at 2000 µg/mL [10]: 65%; G = Greening effect [13]: 2 (31-60%); I = Interligular or internodal length reduction [13]: 2 (31-60%); R = Retardation [13]: 2 (31-60%) |
| CC(C)CC#CC(O)(c1cncnc1)C(C)(C)C (stereo not shown) [Compound 16] | 0 (60-100% of disease on untreated plants) | 2 (31-60%) | 3 (61-100%) | 3 (61-100%) | 3 (trace - 5% of disease on untreated plants) | 2 (31-60%) | 2 (31-60%) | 3 (61-100%) | 3 (61-100%) | 3 (61-100%) | 66 | 88 | 4 | 3 (61-100%) | 3 (61-100%) | 0 (60-100% of disease on untreated plants) | 3 (trace - 5% of disease on untreated plants) | 4 | 59 | 65 | T = Tillering or side shooting [2]: 1 (10-30%); disease control, VENTURIA INAEQUALIS (APPLE) [15]: 4; G = Greening effect [5]: 3 (61-100%); G = Greening effect [8]: 2 (31-60%); I = Interligular or internodal length reduction [8]: 3 (61-100%); percent reduction in plant height at 2000 ppm [10]: 6%; percent reduction in plant height at 2000 µg/mL [10]: 47%; G = Greening effect [16]: 2 (31-60%); I = Interligular or internodal length reduction [16]: 3 (61-100%); R = Retardation [16]: 3 (61-100%); T = Tillering or side shooting ([16]; * = decrease in tillering): 1 (10-30%); G = Greening effect [13]: 2 (31-60%); I = Interligular or internodal length reduction [13]: 3 (61-100%); R = Retardation [13]: 3 (61-100%) |
| CCCCC#CC(O)(c1cncnc1)C(C)C (stereo not shown) [Compound 1, 2-methyl-1-(hex-1-yne)-1-(pyrimidin-5-yl)-propan-1-ol] | 0 (60-100% of disease on untreated plants) | 2 (31-60%) | 3 (61-100%) | 2 (31-60%) | 0 (60-100% of disease on untreated plants) | 2 (31-60%) | 3 (61-100%) | 3 (61-100%) | 3 (61-100%) | 3 (61-100%) | 1.3 | 12.1 | 4 | 3 (61-100%) | 2 (31-60%) | 0 (60-100% of disease on untreated plants) | 0 (60-100% of disease on untreated plants) | 0 (60-100% of disease on untreated plants) | 6.06 | 23 | T = Tillering or side shooting [2]: 3 (61-100%); Percentage Reduction in Height of Apples (Compared to formulation blank) ([17]; 500 ppm): 10.8%; Percentage Reduction in Height of Apples (Compared to formulation blank) ([17]; 2000 ppm): 39.2%; T = Tillering or side shooting [4]: 1 (10-30%); T = Tillering or side shooting ([5]; * = decrease in tillering): 1 (10-30%); G = Greening effect [8]: 1 (10-30%); I = Interligular or internodal length reduction [16]: 2 (31-60%); R = Retardation [16]: 2 (31-60%) |
